# Where two headings read alike, the source gives them in different places.
# How the values were obtained:
# [1] = test system: P. falciparum asexual stages; conditions: TCAMS data, cited from earlier work
# [2] = test system: P. falciparum stage V gametocytes; assay: Gametocytocidal ATP bioluminescence assay (single point 5 μM and 1 μM, dose-response); type: cell-based, Plasmodium falciparum; conditions: for Ratio IC50 HepG2/IC50 P. falciparum: IC50 HepG2 divided by IC50 P. falciparum gametocytes
# Protocol: Purified stage IV-V gametocytes were obtained as previously described [10]. Single point ATP bioluminescence assay and dose–response of positive hits was determined in accordance with the previously published protocol [10].
# [3] = test system: luciferase reaction (BacTiter-Glo); assay: Interference assay (inhibition of the BacTiter-Glo luciferase reaction); type: biochemical; parameters: concentration or dose not given beside the values; conditions: ATP interference assay
# Protocol: To discard possible false-positive results, we performed an interference assay in parallel. […] […]. The ATP solution was made by dissolving ATP powder (ATP standard from the ATPlite 1 step assay kit, reference 6016731, Perkin Elmer) in culture medium. The positive control used was the Luciferase Inhibitor I Calbiochem (Merck, 119113) at 100 μM.
# [4] = Cytotoxicity in HepG2 cells (intracellular ATP, ATPlite, 48 h); type: cell-based, human; conditions: human, HepG2 cells
# Protocol: (§1) Cells were grown and maintained in EMEM (Sigma-Aldrich) supplemented with 2mM L-glutamine (Sigma-Aldrich) and 10% fetal calf serum (Perbio). […] Passages were routinely made upon reaching 80–90% confluence. For cytotoxicity experiments, cells were seeded onto 96-well clear bottom black plates coated with type I collagen (Biocoat, Becton Dickinson) at a cell density of 20,000 cells/well.
# (§2) To determine cytotoxic effects, represented by the Tox50 value (the concentration of drug that reduces cell viability by 50%), cells were exposed to serial dilutions of compounds for 48 h at 37°C. The assay medium was as previously described, but supplemented with 5% fetal calf serum instead of 10%. […] In the presence of ATP, luminescence is emitted as the reaction described earlier for the BacTiter-Glo kit. Percentages of inhibition were calculated relative to vehicle control wells.
# [5] = test system: HepG2 cells; assay: as above; type: cell-based, human; conditions: IC50 HepG2 divided by IC50 P. falciparum gametocytes
# Protocol: as §1, §2
# [6] = asexual stages, read-out: IC50 asexual
# [7] = Plasmodium falciparum, P. falciparum gametocytes, average, read-out: IC50 Pf Gametocytes average, IC50 (µM) average
# [8] = sexual stages (gametocytes), dose-response, read-out: IC50 sexual
# [9] = IC50 per ratio column head, unit inferred, read-out: Cytotoxicity in HepG2
# [10] = P. falciparum asexual stages, read-out: IC50 (µM) Pf asexual stages
# [11] = HepG2, 48 h exposure, intracellular ATP, read-out: IC50 (μM) Cytotoxicity HepG2
# [12] = Plasmodium falciparum, sexual stages (gametocytes), dose-response, read-out: IC50 sexual
structure (smiles),measurement,setting,value
c1ccc2c(NCCCCCCNc3ccnc4ccccc34)ccnc2c1 [TCMDC-137913],IC50,[1]; [6],0.191 µM
same,Ratio IC50 HepG2/IC50 P. falciparum,[2],17
same,IC50,[2]; [7],0.96 µM
same,IC50,[2]; [8],0.963 µM
same,% Control luminiscence,[3],100%
same,IC50 at 48 h,[4]; [9],16.4 µM
same,Ratio IC50 HepG2/IC50 P. falciparum,[5],17
NCc1ccc(CNCc2cccc(-c3ccc(-c4nc5ccccc5[nH]4)cc3)c2)cc1 [TCMDC-132815],IC50,[1]; [6],0.717 µM
same,Ratio IC50 HepG2/IC50 P. falciparum,[2],45
same,IC50,[2]; [7],0.48 µM
same,IC50,[2]; [8],0.483 µM
same,% Control luminiscence,[3],100%
same,IC50 at 48 h,[4]; [9],21.8 µM
same,Ratio IC50 HepG2/IC50 P. falciparum,[5],45
FC(F)(F)c1ccc2[nH]c(-c3cccc(-c4ccc(CNCCN5CCNCC5)cc4)c3)nc2c1 [TCMDC-132872],IC50,[1]; [10],0.86 µM
same,IC50,[1]; [6],0.862 µM
same,Ratio IC50 HepG2/IC50 P. falciparum,[2],15
same,IC50,[2]; [7],0.86 µM
same,% Control luminiscence,[3],100%
same,IC50 at 48 h,[4]; [11],13 µM
same,IC50 at 48 h,[4]; [9],12.6 µM
same,Ratio IC50 HepG2/IC50 P. falciparum,[5],15
COc1ccc(Nc2nccc(-c3ccc4ccnc(NCCCCN)c4c3)n2)cc1 [TCMDC-136642],IC50,[1]; [6],0.75 µM
same,Ratio IC50 HepG2/IC50 P. falciparum,[2],>77
same,IC50,[2]; [7],0.33 µM
same,IC50,[2]; [12],0.327 µM
same,% Control luminiscence,[3],99%
same,IC50 at 48 h,[4]; [9],> 25 µM
same,Ratio IC50 HepG2/IC50 P. falciparum,[5],>77
c1cc(Nc2nc(-c3ccc(-c4csc(Nc5ccncc5)n4)cc3)cs2)ccn1 [TCMDC-139725],IC50,[1]; [6],0.117 µM
same,Ratio IC50 HepG2/IC50 P. falciparum,[2],67
same,IC50,[2]; [7],0.26 µM
same,% Control luminiscence,[3],93%
same,IC50 at 48 h,[4]; [9],17.3 µM
same,Ratio IC50 HepG2/IC50 P. falciparum,[5],67
C=CCN(C(=O)c1ccc(Cl)c([N+](=O)[O-])c1)c1nc(-c2ccccc2)cs1 [TCMDC-124436],IC50,[1]; [10],0.4 µM
same,IC50,[1]; [6],0.398 µM
same,Ratio IC50 HepG2/IC50 P. falciparum,[2],>237
same,IC50,[2]; [7],0.11 µM
same,IC50,[2]; [12],0.105 µM
same,% Control luminiscence,[3],100%
same,IC50 at 48 h,[4]; [9],> 25 µM
same,Ratio IC50 HepG2/IC50 P. falciparum,[5],>237
COc1cccc(Nc2c(C(N)=O)cnc3ccc(-c4ccc([S+](C)[O-])cc4)cc23)c1 (stereo not shown) [TCMDC-135184],IC50,[1]; [10],0.19 µM
same,IC50,[1]; [6],0.186 µM
same,Ratio IC50 HepG2/IC50 P. falciparum,[2],>18
same,IC50,[2]; [7],1.43 µM
same,IC50,[2]; [12],1.43 µM
same,% Control luminiscence,[3],100%
same,IC50 at 48 h,[4]; [9],> 25 µM
same,Ratio IC50 HepG2/IC50 P. falciparum,[5],>18
COc1cccc(C(=O)NC(C=Cc2ccccc2)c2cc(Cl)c3cccnc3c2O)c1 (stereo not shown) [TCMDC-125550],IC50,[1]; [6],0.859 µM
same,Ratio IC50 HepG2/IC50 P. falciparum,[2],>43
same,IC50,[2]; [7],0.59 µM
same,IC50,[2]; [8],0.585 µM
same,% Control luminiscence,[3],100%
same,IC50 at 48 h,[4]; [9],> 25 µM
same,Ratio IC50 HepG2/IC50 P. falciparum,[5],>43
Fc1ccc2[nH]c(-c3cccc(-c4cccc(CNCCN5CCNCC5)c4)c3)nc2c1 [TCMDC-132860],IC50,[1]; [10],0.84 µM
same,IC50,[1]; [6],0.842 µM
same,Ratio IC50 HepG2/IC50 P. falciparum,[2],27
same,IC50,[2]; [7],0.74 µM
same,IC50,[2]; [12],0.737 µM
same,% Control luminiscence,[3],100%
same,IC50 at 48 h,[4]; [11],20 µM
same,IC50 at 48 h,[4]; [9],19.6 µM
same,Ratio IC50 HepG2/IC50 P. falciparum,[5],27
CN(C)CCNC(=O)c1ccc(-c2cnc3ccc(NCc4ccc(Cl)c(Cl)c4)nn23)cc1 [TCMDC-136678],IC50,[1]; [10],0.91 µM
same,IC50,[1]; [6],0.913 µM
same,Ratio IC50 HepG2/IC50 P. falciparum,[2],50
same,IC50,[2]; [7],0.33 µM
same,IC50,[2]; [12],0.333 µM
same,% Control luminiscence,[3],100%
same,IC50 at 48 h,[4]; [11],17 µM
same,IC50 at 48 h,[4]; [9],16.7 µM
same,Ratio IC50 HepG2/IC50 P. falciparum,[5],50
Fc1ccc(NC(=S)NN=Cc2ccccn2)cc1 [TCMDC-125521],IC50,[1]; [10],0.77 µM
same,IC50,[1]; [6],0.775 µM
same,Ratio IC50 HepG2/IC50 P. falciparum,[2],195
same,IC50,[2]; [7],0.12 µM
same,% Control luminiscence,[3],100%
same,IC50 at 48 h,[4]; [11],23 µM
same,IC50 at 48 h,[4]; [9],23.4 µM
same,Ratio IC50 HepG2/IC50 P. falciparum,[5],195
CCN(CC)CCCOC(=O)c1ccc2c(c1)-c1ccc(C(=O)OCCCN(CC)CC)c3cccc-2c13 [TCMDC-125491],IC50,[1]; [6],0.933 µM
same,Ratio IC50 HepG2/IC50 P. falciparum,[2],140
same,IC50,[2]; [7],0.14 µM
same,IC50,[2]; [8],0.143 µM
same,% Control luminiscence,[3],96%
same,IC50 at 48 h,[4]; [9],20 µM
same,Ratio IC50 HepG2/IC50 P. falciparum,[5],140
